Molecular target: T1, F508del (Homo sapiens, UniProt P13569, DEL508-508)
T1 construct: expressed in transfected cells
Assay: Protocol 2: FRET membrane potential optical assay (VIPR), identification of correction compounds
Format: cell-based
Settings: F508del CFTR modulator activity; compounds of Table 1; read-out: EC30
Outline: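 Correction of the F508del trafficking defect is scored as forskolin (10 μM)/genistein (20 μM)-stimulated Cl^− efflux in NIH3T3 mouse fibroblasts after a 16 hr, 37° C. compound exposure. Depolarization was followed optically using voltage-sensing FRET dyes.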

T1 sequence (P13569 with tags, fused parts or gaps DEL508-508): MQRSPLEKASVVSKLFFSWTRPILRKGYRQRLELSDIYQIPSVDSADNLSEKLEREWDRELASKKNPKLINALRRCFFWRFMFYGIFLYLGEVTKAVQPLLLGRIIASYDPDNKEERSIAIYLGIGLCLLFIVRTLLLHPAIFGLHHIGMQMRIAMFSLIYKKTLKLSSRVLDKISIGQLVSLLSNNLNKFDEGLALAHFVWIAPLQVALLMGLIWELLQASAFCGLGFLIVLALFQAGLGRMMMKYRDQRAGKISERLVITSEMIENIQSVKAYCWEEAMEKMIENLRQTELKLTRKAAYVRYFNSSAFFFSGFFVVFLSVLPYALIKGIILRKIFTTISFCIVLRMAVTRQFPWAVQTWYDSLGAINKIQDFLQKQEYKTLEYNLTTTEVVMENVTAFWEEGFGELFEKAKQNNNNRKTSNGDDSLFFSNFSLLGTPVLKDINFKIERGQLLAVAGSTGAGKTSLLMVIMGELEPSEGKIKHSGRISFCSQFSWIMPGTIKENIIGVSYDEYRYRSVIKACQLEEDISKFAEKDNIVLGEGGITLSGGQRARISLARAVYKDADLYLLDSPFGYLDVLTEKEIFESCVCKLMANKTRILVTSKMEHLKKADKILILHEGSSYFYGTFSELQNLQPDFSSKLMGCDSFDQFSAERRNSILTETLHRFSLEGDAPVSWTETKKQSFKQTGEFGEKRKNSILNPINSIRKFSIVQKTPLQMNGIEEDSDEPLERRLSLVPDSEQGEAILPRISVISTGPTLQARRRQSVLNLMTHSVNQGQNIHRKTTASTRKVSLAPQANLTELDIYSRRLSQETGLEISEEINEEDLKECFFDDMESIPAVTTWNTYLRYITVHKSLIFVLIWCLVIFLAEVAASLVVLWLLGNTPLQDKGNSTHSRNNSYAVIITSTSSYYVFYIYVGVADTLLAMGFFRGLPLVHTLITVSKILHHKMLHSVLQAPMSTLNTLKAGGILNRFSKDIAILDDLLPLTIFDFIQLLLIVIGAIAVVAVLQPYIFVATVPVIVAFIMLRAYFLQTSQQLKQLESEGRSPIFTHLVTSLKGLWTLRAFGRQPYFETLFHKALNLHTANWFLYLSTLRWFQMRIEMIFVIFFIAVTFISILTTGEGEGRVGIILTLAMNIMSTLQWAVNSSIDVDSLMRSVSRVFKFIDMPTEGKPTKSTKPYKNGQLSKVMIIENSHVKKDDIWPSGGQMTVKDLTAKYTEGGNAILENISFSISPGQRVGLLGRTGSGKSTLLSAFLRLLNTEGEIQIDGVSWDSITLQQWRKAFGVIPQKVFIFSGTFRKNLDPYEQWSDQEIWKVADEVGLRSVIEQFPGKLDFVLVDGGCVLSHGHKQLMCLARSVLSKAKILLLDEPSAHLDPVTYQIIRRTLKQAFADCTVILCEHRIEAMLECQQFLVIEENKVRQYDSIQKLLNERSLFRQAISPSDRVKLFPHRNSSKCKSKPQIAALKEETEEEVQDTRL

Question: With `CC(C)Cc1ccc(-c2cnc(N3CC(C)CC3(C)C)c(C(=O)NS(=O)(=O)c3cccc(N)n3)c2)cc1` (stereo not drawn) [Compound 2395, N-[(6-amino-2-pyridyl)sulfonyl]-5-(4-isobutylphenyl)-2-(2,2,4-trimethylpyrrolidin-1-yl)pyridine-3-carboxamide] as the molecule, how does the EC30 read?
Answer: The EC30 was under 3 µM.

Question: Which EC30 does the source give for `CC1CN(c2ncccc2C(=O)NS(=O)(=O)c2cccc(OCC3CCOC3)n2)C(C)(C)C1` (stereo not drawn) [Compound 2396, N—[[6-(tetrahydrofuran-3-ylmethoxy)-2-pyridyl]sulfonyl]-2-(2,2,4-trimethylpyrrolidin-1-yl)pyridine-3-carboxamide] here?
Answer: Its EC30 is 3 to 10 µM.

Question: For `CC1CN(c2ncccc2C(=O)NS(=O)(=O)c2cccc(Nc3ccccc3C(F)(F)F)n2)C(C)(C)C1` (stereo not drawn) [Compound 2397, N—[[6-[2-(trifluoromethyl)anilino]-2-pyridyl]sulfonyl]-2-(2,2,4-trimethylpyrrolidin-1-yl)pyridine-3-carboxamide], which EC30 is on record?
Answer: The EC30 was under 3 µM.

Question: `CC(C)COc1cc(F)cc(-c2ccc(C(=O)NS(=O)(=O)N3CC(C)(O)C3)c(N3C[C@@H](C)CC3(C)C)n2)c1` [Compound 2398, 6-(3-fluoro-5-isobutoxy-phenyl)-N-(3-hydroxy-3-methyl-azetidin-1-yl)sulfonyl-2-[(4S)-2,2,4-trimethylpyrrolidin-1-yl]pyridine-3-carboxamide] was tested. Which EC30 did it give?
Answer: The EC30 was under 3 µM.

Question: For `CC1CN(c2ncc(-c3ccc(Cl)cc3)cc2C(=O)NS(=O)(=O)c2cccc(N)n2)C(C)(C)C1` (stereo not drawn) [Compound 2399, N-[(6-amino-2-pyridyl)sulfonyl]-5-(4-chlorophenyl)-2-(2,2,4-trimethylpyrrolidin-1-yl)pyridine-3-carboxamide], which EC30 is on record?
Answer: Its EC30 is under 3 µM.

Question: For `CC1CN(c2ncccc2C(=O)NS(=O)(=O)c2cccc(NCCN(C)C(=O)OC(C)(C)C)n2)C(C)(C)C1` (stereo not drawn) [Compound 2400, tert-butyl N-methyl-N—[2-[[6-[[2-(2,2,4-trimethylpyrrolidin-1-yl)pyridine-3-carbonyl]sulfamoyl]-2-pyridyl]amino]ethyl]carbamate], which EC30 is on record?
Answer: Its EC30 is 3 to 10 µM.

Question: `C[C@@H]1CN(c2nc(-c3ccc4ccn(C)c4c3)ccc2C(=O)NS(=O)(=O)c2cccnc2N)C(C)(C)C1` [Compound 2401, N-[(2-amino-3-pyridyl)sulfonyl]-6-(I-methylindol-6-yl)-2-[(4S)-2,2,4-trimethylpyrrolidin-1-yl]pyridine-3-carboxamide] was tested. Which EC30 did it give?
Answer: The EC30 was under 3 µM.

Question: `CC1CN(c2ncccc2C(=O)NS(=O)(=O)c2cccc(OCc3ccc(Cl)c(Cl)c3)n2)C(C)(C)C1` (stereo not drawn) [Compound 2402, N—[[6-[(3,4-dichlorophenyl)methoxy]-2-pyridyl]sulfonyl]-2-(2,2,4-trimethylpyrrolidin-1-yl)pyridine-3-carboxamide] was tested. Which EC30 did it give?
Answer: The EC30 was under 3 µM.

Question: How did the EC30 turn out when `CCOc1ccc(-c2ccc(C(=O)NS(=O)(=O)c3cccnc3N)c(N3C[C@@H](C)CC3(C)C)n2)cc1F` [Compound 2403, N-[(2-amino-3-pyridyl)sulfonyl]-6-(4-ethoxy-3-fluoro-phenyl)-2-[(4S)-2,2,4-trimethylpyrrolidin-1-yl]pyridine-3-carboxamide] was run?
Answer: Its EC30 is under 3 µM.

Question: `CCOCCOc1ncc(-c2ccc(C(=O)NS(=O)(=O)c3cccc(N)n3)c(N3C[C@@H](C)CC3(C)C)n2)cc1C` [Compound 2404, N-[(6-amino-2-pyridyl)sulfonyl]-6-[6-(2-ethoxyethoxy)-5-methyl-3-pyridyl]-2-[(4S)-2,2,4-trimethylpyrrolidin-1-yl]pyridine-3-carboxamide] was tested. Which EC30 did it give?
Answer: Its EC30 is under 3 µM.

Question: `C[C@@H]1CN(c2nc3ccccc3cc2C(=O)NS(=O)(=O)c2ccc[nH]c2=O)C(C)(C)C1` [Compound 2405, N-[(2-oxo-1H-pyridin-3-yl)sulfonyl]-2-[(4S)-2,2,4-trimethylpyrrolidin-1-yl]quinoline-3-carboxamide] was tested. Which EC30 did it give?
Answer: The EC30 was under 3 µM.

Question: `C[C@@H]1CN(c2nc(-n3cc(OCC(C)(C)C)cn3)ccc2C(=O)NS(=O)(=O)c2cccnc2N)C(C)(C)C1` [Compound 2406, N-[(2-amino-3-pyridyl)sulfonyl]-6-[4-(2,2-dimethylpropoxy)pyrazol-1-yl]-2-[(4S)-2,2,4-trimethylpyrrolidin-1-yl]pyridine-3-carboxamide] was tested. Which EC30 did it give?
Answer: The EC30 was under 3 µM.

Question: With `CC1CN(c2ncccc2C(=O)NS(=O)(=O)c2cccc(NC3CCN(Cc4ccccc4)C3)n2)C(C)(C)C1` (stereo not drawn) [Compound 2407, N—[[6-[(1-benzylpyrrolidin-3-yl)amino]-2-pyridyl]sulfonyl]-2-(2,2,4-trimethylpyrrolidin-1-yl)pyridine-3-carboxamide] as the molecule, how does the EC30 read?
Answer: Its EC30 is 3 to 10 µM.

Question: Which EC30 does the source give for `CC1CN(c2ncccc2C(=O)NS(=O)(=O)c2cccc(OC(C)c3ccccc3F)n2)C(C)(C)C1` (stereo not drawn) [Compound 2408, N—[[6-[1-(2-fluorophenyl)ethoxy]-2-pyridyl]sulfonyl]-2-(2,2,4-trimethylpyrrolidin-1-yl)pyridine-3-carboxamide] here?
Answer: The EC30 was under 3 µM.

Question: `CC1CN(c2ncccc2C(=O)NS(=O)(=O)c2cccc(OCc3cccc(F)c3)n2)C(C)(C)C1` (stereo not drawn) [Compound 2409, N—[[6-[(3-fluorophenyl)methoxy]-2-pyridyl]sulfonyl]-2-(2,2,4-trimethylpyrrolidin-1-yl)pyridine-3-carboxamide] was tested. Which EC30 did it give?
Answer: The EC30 was under 3 µM.

Question: With `CCOc1ccc(C)cc1-c1ccc(C(=O)NS(=O)(=O)c2ccc[nH]c2=O)c(N2C[C@@H](C)CC2(C)C)n1` [Compound 2410, 6-(2-ethoxy-5-methyl-phenyl)-N-[(2-oxo-1H-pyridin-3-yl)sulfonyl]-2-[(4S)-2,2,4-trimethylpyrrolidin-1-yl]pyridine-3-carboxamide] as the molecule, how does the EC30 read?
Answer: Its EC30 is under 3 µM.

Question: How did the EC30 turn out when `COc1cccc(-c2ccc(C(=O)NS(=O)(=O)c3ccccc3)c(N3C[C@@H](C)CC3(C)C)n2)n1` [Compound 2411, N-(benzenesulfonyl)-6-(6-methoxy-2-pyridyl)-2-[(4S)-2,2,4-trimethylpyrrolidin-1-yl]pyridine-3-carboxamide] was run?
Answer: Its EC30 is under 3 µM.

Question: `CC1CN(c2ncccc2C(=O)NS(=O)(=O)c2cccc(OCC(C)(C)C)n2)C(C)(C)C1` (stereo not drawn) [Compound 2412, N—[[6-(2,2-dimethylpropoxy)-2-pyridyl]sulfonyl]-2-(2,2,4-trimethylpyrrolidin-1-yl)pyridine-3-carboxamide] was tested. Which EC30 did it give?
Answer: The EC30 was under 3 µM.

Question: Which EC30 does the source give for `COc1ccc(C)cc1-c1ccc(C(=O)NS(=O)(=O)c2cccnc2N)c(N2C[C@@H](C)CC2(C)C)n1` [Compound 2413, N-[(2-amino-3-pyridyl)sulfonyl]-6-(2-methoxy-5-methyl-phenyl)-2-[(4S)-2,2,4-trimethylpyrrolidin-1-yl]pyridine-3-carboxamide] here?
Answer: Its EC30 is under 3 µM.

Question: `C[C@@H]1CN(c2nc(-c3cccc(F)c3)ccc2C(=O)NS(=O)(=O)N2CC[C@H](N)C2)C(C)(C)C1` [Compound 2414, N-[(3S)-3-aminopyrrolidin-1-yl]sulfonyl-6-(3-fluorophenyl)-2-[(4S)-2,2,4-trimethylpyrrolidin-1-yl]pyridine-3-carboxamide] was tested. Which EC30 did it give?
Answer: Its EC30 is 3 to 10 µM.

Question: With `CC1CN(c2ncccc2C(=O)NS(=O)(=O)c2cccc(OCc3ccc(C(C)C)cc3)n2)C(C)(C)C1` (stereo not drawn) [Compound 2415, N—[[6-[(4-isopropylphenyl)methoxy]-2-pyridyl]sulfonyl]-2-(2,2,4-trimethylpyrrolidin-1-yl)pyridine-3-carboxamide] as the molecule, how does the EC30 read?
Answer: Its EC30 is under 3 µM.

Question: `C[C@@H]1CN(c2nc(-c3cc(C(F)(F)F)nn3C)ccc2C(=O)NS(=O)(=O)c2cccnc2N)C(C)(C)C1` [Compound 2416, N-[(2-amino-3-pyridyl)sulfonyl]-6-[2-methyl-5-(trifluoromethyl)pyrazol-3-yl]-2-[(4S)-2,2,4-trimethylpyrrolidin-1-yl]pyridine-3-carboxamide] was tested. Which EC30 did it give?
Answer: Its EC30 is under 3 µM.

Question: How did the EC30 turn out when `C[C@@H]1CN(c2nc(C(C)(C)C)c(C3=CCN(C(=O)Cc4ccccc4)CC3)cc2C(=O)NS(=O)(=O)c2cccc(N)n2)C(C)(C)C1` [Compound 2417, N-[(6-amino-2-pyridyl)sulfonyl]-6-tert-butyl-5-[1-(2-phenylacetyl)-3,6-dihydro-2H-pyridin-4-yl]-2-[(4S)-2,2,4-trimethylpyrrolidin-1-yl]pyridine-3-carboxamide] was run?
Answer: Its EC30 is under 3 µM.

Question: `C[C@@H]1CN(c2nc(-c3cncc4ccccc34)ccc2C(=O)NS(=O)(=O)c2cccnc2N)C(C)(C)C1` [Compound 2418, N-[(2-amino-3-pyridyl)sulfonyl]-6-(4-isoquinolyl)-2-[(4S)-2,2,4-trimethylpyrrolidin-1-yl]pyridine-3-carboxamide] was tested. Which EC30 did it give?
Answer: Its EC30 is under 3 µM.

Question: How did the EC30 turn out when `COc1ccc2nc(N3C[C@@H](C)CC3(C)C)c(C(=O)NS(=O)(=O)c3ccc[nH]c3=O)cc2c1` [Compound 2419, 6-methoxy-N-[(2-oxo-1H-pyridin-3-yl)sulfonyl]-2-[(4S)-2,2,4-trimethylpyrrolidin-1-yl]quinoline-3-carboxamide] was run?
Answer: The EC30 was 3 to 10 µM.

Question: Which EC30 does the source give for `COc1cccc(Nc2cccc(S(=O)(=O)NC(=O)c3cccnc3N3CC(C)CC3(C)C)n2)n1` (stereo not drawn) [Compound 2420, N—[[6-[(6-methoxy-2-pyridyl)amino]-2-pyridyl]sulfonyl]-2-(2,2,4-trimethylpyrrolidin-1-yl)pyridine-3-carboxamide] here?
Answer: The EC30 was 3 to 10 µM.

Question: For `CC1CN(c2ncccc2C(=O)NS(=O)(=O)c2cccc(NCc3cc(F)cc(F)c3)n2)C(C)(C)C1` (stereo not drawn) [Compound 2421, N—[[6-[(3,5-difluorophenyl)methylamino]-2-pyridyl]sulfonyl]-2-(2,2,4-trimethylpyrrolidin-1-yl)pyridine-3-carboxamide], which EC30 is on record?
Answer: Its EC30 is under 3 µM.

Question: For `COc1cccc(F)c1-c1ccc(C(=O)NS(=O)(=O)c2ccc[nH]c2=O)c(N2C[C@@H](C)CC2(C)C)n1` [Compound 2422, 6-(2-fluoro-6-methoxy-phenyl)-N-[(2-oxo-1H-pyridin-3-yl)sulfonyl]-2-[(4S)-2,2,4-trimethylpyrrolidin-1-yl]pyridine-3-carboxamide], which EC30 is on record?
Answer: The EC30 was 3 to 10 µM.

Question: `CCCCCCN1CCN(c2cccc(S(=O)(=O)NC(=O)c3cccnc3N3CC(C)CC3(C)C)n2)CC1` (stereo not drawn) [Compound 2423, N—[[6-(4-hexylpiperazin-1-yl)-2-pyridyl]sulfonyl]-2-(2,2,4-trimethylpyrrolidin-1-yl)pyridine-3-carboxamide] was tested. Which EC30 did it give?
Answer: The EC30 was under 3 µM.

Question: `Cc1cccc(-c2ccc(C(=O)NS(=O)(=O)c3ccc[nH]c3=O)c(N3C[C@@H](C)CC3(C)C)n2)c1` [Compound 2424, 6-(m-tolyl)-N-[(2-oxo-1H-pyridin-3-yl)sulfonyl]-2-[(4S)-2,2,4-trimethylpyrrolidin-1-yl]pyridine-3-carboxamide] was tested. Which EC30 did it give?
Answer: Its EC30 is under 3 µM.

Reference: US10758534B2 (Vertex Pharmaceuticals Incorporated, priority 2014, dated 2020)
